# Laboratory results reported in patent US8920851B2, “Treatment of neurodegenerative diseases” (Velacor Therapeutics Pty Ltd, priority 2006, dated 2014).
# Entries after “also recorded” stand apart in the source; their conditions may differ.
# Columns and labels:
# Akt = Akt phosphorylation by immunoblot in PC3 prostate carcinoma cells; type: cell-based, human; conditions: for Akt phosphorylation at Ser473: PC3 cells, 500 μM of each compound, various timepoints
# Protocol: Such dephosphorylation may be the result of a direct inhibitory effect on the Akt protein itself, or alternatively, can be similarly achieved indirectly by boosting a negative regulator or inhibiting a positive regulator of Akt phosphorylation. […] PC3 prostate carcinoma cells were plated in 100 mm dishes, and when 70-80% confluent serum starved overnight. […] Cells were lysed, and the level of Akt Ser473 phosphorylation determined by immunoblot analysis with an activation specific antibody, and comparison made to levels of Akt protein expressed. To determine the effect on purified Akt, similarly plated but untreated PC3 cells were lysed in RIPA (minus phosphatase inhibitors), a stringent cell lysis buffer that minimizes maintenance of protein-protein complexes. […] The immunoprecipitated protein was then resolved and the level of activated Akt determined by immunoblot analysis as described above.
# A reduction in net Akt activity could be achieved indirectly by either preventing the initial Akt phosphorylation, or alternatively, increasing Akt dephosphorylation [Kohn et. al. 1996]. […] Initially okadaic acid, a polyether toxin from red-tide algae (and causative agent of diarrhoetic shellfish poisoning) which inhibits the phospho-protein phosphatases PP1 and PP2A, two phosphatases implicated in the regulation of Akt dephosphorylation was used [Fernandez et al., 2002]. 5×10^5 PC3 prostate carcinoma cells were plated per well of a 6 well plate, allowed attach for 8 h, and then serum starved overnight. […] Lysed cells were resolved by SDS-PAGE, then probed for Akt phosphorylation at the Ser473 residue by immunoblot analysis with an antibody that specifically recognizes Akt when phosphorylated at this site, and comparison made with the total levels of Akt protein expressed (FIG. 2A).
# This panel included tautamycin 500 nM (PP1), okadaic acid 500 nM (low dose PP2A>PP1), endothall A (PP2A) 100 μM, calyculin A 2 nM (low dose PP1>PP2A), calyculin A 10 nM (high dose inhibits PP1 and PP2A) and cyclosporine A 400 ng/ml (PP2B). […] Again, lysed cells were resolved by SDS-PAGE, then membranes probed for Akt phosphorylation at the Ser^473 residue by immunoblot analysis with an antibody that specifically recognizes Akt when phosphorylated at this site, and comparison made with the total levels of Akt protein expressed.
# 5×10^5 PC3 prostate carcinoma cells were plated per well in a 6-well plate, allowed to attach for 8 h, and then serum starved overnight. […] Equal amounts of whole cell lysates were resolved, and then subjected to immunoblot analysis to determine the level of phosphorylated Akt Ser^473. Comparison was then made with the total level of Akt protein expressed.
# The phosphorylation status of Akt in whole cell lysates was determined using activation specific antibodies.
# Other inorganic (sodium selenite, selenium dioxide, selenium sulphide and selenious acid) and organic (methylselenocysteine, selenocystine) selenium species were tested for their ability to affect Akt activation. All forms were dissolved in water with the exception of selenium sulphide which was solubilised in DMSO, and added to serum starved PC3 cells at a concentration of 500 μM for 1 hour, Whole cell lysates were then resolved, and the activation status of Akt determined by immunoblotting with an antibody that specifically recognizes Akt when phosphorylated at the Ser473 site, as well as the total level of Akt expression (pan Akt). To quantify the degree of Akt activation, immunoblots were digitalised, and the ratio of phosphorylated Akt to total Akt determined by densitometry.
# PHF Tau = conditions: Balb/C Nu Nu male mice, single subcutaneous injection 300 μg per 200 μl PBS, 2 and 6 hours
# Protocol: Lysates preparation and Immunoblotting: Cells were washed twice in cold PBS and were lysed in 150 μl of cold RIPA buffer (containing 10% glycerol, 20 mM Tris, 137 mM NaCl, 0.1% SDS, 0.05% IGEPAL, 1% Triton X-100, 2 mM EDTA, 10% NaV, 2% NaF and 4× protease inhibitor), similarly, brain tissues were homogenised in dry ice using mortar and pestle, and lysed in 150 μl RIPA buffer. Samples were incubated on ice for 30 minutes, followed by centrifugation at 13000 rpm/ 10 minutes/ 4° C. Supernantant was collected and protein estimation was calculated for each sample by using BCA reagent (Sigma). Equal amounts of protein were loaded into each lane of a 10% SDS-polyacrylamide gel. The proteins were transferred onto PVDF (Millipore) membranes and were blocked with 5% skim milk blotto for 2 hours. After blocking the membrane, primary antibodies: either anti-human PHF-Tau (AT100 at 1:200, AT180 at 1:1000, and AT270 at 1:2500) or anti-human Tau (HT-7 at 1:1000) were incubated overnight at 4° C. in 5% skim milk blotto. Prior to secondary antibody incubation, membranes were rinsed 3× followed by 3×5 minutes washed in Tris-Buffered Saline with 0.01% Tween at room temperature. […] Membranes were washed as described above and were detected by using Amersham ECL western blotting detection reagent (Amersham Bioscience, Buckinghamshire, UK). […]
# rabbit PP1 = conditions: 0.05 U PP1, 500 μM phospho-threonine peptide, 15 min at 37° C., 50 μM sodium selenate
# Protocol: 1 mg of synthetic phosphopeptides K-R-pT-I-R-R (Upstate #12-219) and R-R-A-pS-V-A (Upstate #12-220) were dissolved in 1.10-1.285 ml of dH2O to prepare a 1 mM solution, then aliquoted and stored at −20° C. until use. 0.01-0.05 U of purified PP2A A-C dimer purified from human red blood cells, or 0.05 U of rabbit PP1 purified from skeletal muscle was mixed with 500 μM of phosphopeptide and incubated in the presence of various treatments as indicated at 37° C. on a heating block for 15 min. Each reaction was made up to a total volume of 25 μl with pNPP buffer (50 mM Tris-HCl, pH 7.0, 100 μM CaCl2). The enzyme reaction was terminated by adding 100 μl of malachite green solution (0.034% malachite green in 10 mM ammonium molybdate, 1 N HCl, 3.4% ethanol, 0.01% Tween-20). Malachite green forms a stable green complex in the presence of molybdate and orthophosphate, allowing the amount of inorganic phosphate present to be measured. Absorbance was read in duplicate for each sample at 590 nm.
# [1] = target: phosphatase activity associated with immunoprecipitated Akt protein (PP2A) (Homo sapiens, UniProt P67775); conditions: PC3 cells, 500 μM, 1 h
# Protocol: 2×10^6 PC3 cells were plated in 10 cm plates, allowed to attach for 8 hours, and then serum starved over night. […] 500-600 μg of total protein was then immunoprecipitated with anti-Akt (1:100) monoclonal antibody and 30 μl of Protein A slurry, and after washing, checked for free phosphate contamination by incubation of 25 μl of final wash buffer with Malachite Green. Immunoprecipitates were assayed for phosphatase activity by incubation with 500 μM synthetic phospho-threonine peptide for 10 min at 30° C. with agitation. Free phosphate was detected by the addition of malachite green solution, and absorbance was read at 590 nm, for each sample in duplicate.
# [2] = serum free PC3 cells, 500 μM, various times
# phosphatase activity associated with immunoprecipitated Akt protein (PP2A), sequence (P67775 whole entry): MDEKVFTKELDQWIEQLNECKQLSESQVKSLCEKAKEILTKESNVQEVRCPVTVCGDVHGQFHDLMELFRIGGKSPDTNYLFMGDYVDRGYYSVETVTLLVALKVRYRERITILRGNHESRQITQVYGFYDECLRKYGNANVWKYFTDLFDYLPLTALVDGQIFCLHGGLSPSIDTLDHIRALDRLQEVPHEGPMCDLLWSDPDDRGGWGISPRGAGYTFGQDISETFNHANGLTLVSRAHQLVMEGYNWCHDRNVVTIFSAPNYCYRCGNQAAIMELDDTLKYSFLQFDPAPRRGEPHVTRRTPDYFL
# phosphatase activity associated with immunoprecipitated Akt protein (PP2A), sequence (P30153 2-589, further chain): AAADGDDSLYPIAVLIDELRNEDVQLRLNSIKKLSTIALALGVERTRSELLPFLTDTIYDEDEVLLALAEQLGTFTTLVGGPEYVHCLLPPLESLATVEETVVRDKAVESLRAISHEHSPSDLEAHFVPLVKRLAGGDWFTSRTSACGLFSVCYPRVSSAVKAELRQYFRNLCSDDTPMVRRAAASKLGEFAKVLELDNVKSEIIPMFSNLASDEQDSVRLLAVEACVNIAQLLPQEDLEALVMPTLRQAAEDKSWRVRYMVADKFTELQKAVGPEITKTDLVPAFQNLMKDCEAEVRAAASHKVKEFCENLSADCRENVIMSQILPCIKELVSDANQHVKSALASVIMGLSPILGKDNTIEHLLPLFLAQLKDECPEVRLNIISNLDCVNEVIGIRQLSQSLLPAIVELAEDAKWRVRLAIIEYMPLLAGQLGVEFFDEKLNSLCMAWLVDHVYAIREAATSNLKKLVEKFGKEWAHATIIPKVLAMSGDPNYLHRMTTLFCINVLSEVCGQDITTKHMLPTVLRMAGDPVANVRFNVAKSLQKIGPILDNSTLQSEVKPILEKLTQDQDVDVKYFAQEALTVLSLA
compound,measurement,setting,value
O=[Se](=O)(O)O [sodium selenate],Akt phosphorylation at Ser473,Akt,profoundly inhibited Akt phosphorylation
same,Akt phosphorylation at Ser473,Akt; listed as selenate,inhibited Akt phosphorylation
same,Akt Ser473 phosphorylation,"Akt; intact serum starved PC3 cells, sodium selenate 500 μM, 1 h",profound reduction in Akt phosphorylation; also recorded: markedly reduces the chronically high levels of Akt phosphorylation; also recorded: marked decrease in the phosphorylation of Akt; also recorded: markedly reduced the level of Akt phosphorylation
same,"phosphorylation of Akt at Ser473 and Thre308, after the initial boost",Akt; [2],marked and prolonged deactivation
same,total cellular Akt levels (pan Akt),Akt; [2],remained essentially unchanged
same,"phosphorylation of Akt at Ser473 and Thre308, early","Akt; serum free PC3 cells, 500 μM, within 10 minutes of exposure",transient boost in phosphorylation of Akt
same,Akt activation: ratio of phosphorylated Akt to total Akt versus control,"Akt; serum starved PC3 cells, 500 μM, 1 hour, densitometry",inhibits activation of Akt
same,reduction in Akt phosphorylation at Ser473 compared to untreated cells,"Akt; serum starved PC3 cells, 500 μM, 1 hour, densitometry, p<0.05",greater than 80%
same,"PHF Tau signal in brain lysate, clone AT100 (60 kDa)",PHF Tau,PHF Tau signal appeared to be reduced
same,"PHF Tau signal in brain lysate, clone AT180 (60 kDa)",PHF Tau,PHF Tau signal clearly reduced
same,phosphatase activity of PP1,rabbit PP1,did not affect the phosphatase activity of PP1
same,phosphatase activity associated with immunoprecipitated Akt protein,[1],more than doubled
